Assay [1] deals with 72 kDa type IV collagenase (Homo sapiens, UniProt P08253). Put plainly: Dose Response validation of uHTS RPN11 inhibitor hits using a MMP-2 Fluorescence assay. In kind it is functional.
Assay [2] concerns the target T1, Aminopeptidase N (Plasmodium falciparum FcB1/Columbia, UniProt O96935).
T1 sequence (O96935 whole entry): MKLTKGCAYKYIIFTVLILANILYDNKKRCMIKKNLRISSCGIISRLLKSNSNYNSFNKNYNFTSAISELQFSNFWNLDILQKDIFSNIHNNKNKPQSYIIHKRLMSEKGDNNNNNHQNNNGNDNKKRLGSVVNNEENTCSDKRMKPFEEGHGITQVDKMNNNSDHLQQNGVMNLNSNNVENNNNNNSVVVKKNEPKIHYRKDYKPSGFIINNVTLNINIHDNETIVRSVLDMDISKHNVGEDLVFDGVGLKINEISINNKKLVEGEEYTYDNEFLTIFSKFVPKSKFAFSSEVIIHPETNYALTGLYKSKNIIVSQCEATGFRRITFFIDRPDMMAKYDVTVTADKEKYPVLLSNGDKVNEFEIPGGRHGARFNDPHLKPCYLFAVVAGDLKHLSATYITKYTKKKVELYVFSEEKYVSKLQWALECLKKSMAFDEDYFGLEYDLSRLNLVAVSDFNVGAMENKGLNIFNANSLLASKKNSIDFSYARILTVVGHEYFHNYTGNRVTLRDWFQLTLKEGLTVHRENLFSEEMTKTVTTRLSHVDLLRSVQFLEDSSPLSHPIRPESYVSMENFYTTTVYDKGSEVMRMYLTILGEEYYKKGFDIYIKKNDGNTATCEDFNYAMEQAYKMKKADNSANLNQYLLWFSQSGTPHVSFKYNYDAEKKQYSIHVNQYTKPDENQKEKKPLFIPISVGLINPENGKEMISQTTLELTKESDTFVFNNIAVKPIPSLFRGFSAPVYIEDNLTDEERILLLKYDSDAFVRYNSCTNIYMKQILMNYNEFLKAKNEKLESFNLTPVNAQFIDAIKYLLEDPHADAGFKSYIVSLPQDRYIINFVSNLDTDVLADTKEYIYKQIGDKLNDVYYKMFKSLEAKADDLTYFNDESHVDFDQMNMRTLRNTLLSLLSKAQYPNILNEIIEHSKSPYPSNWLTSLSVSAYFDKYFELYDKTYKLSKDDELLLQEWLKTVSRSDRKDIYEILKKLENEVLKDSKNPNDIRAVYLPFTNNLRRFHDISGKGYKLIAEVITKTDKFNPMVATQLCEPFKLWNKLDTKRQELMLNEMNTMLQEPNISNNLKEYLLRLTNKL
Nature of the assay: malaria alanyl aminopeptidase activity blockers – biochemical, fluorogenic H-Leu-NHMec substrate, 1536-well (AID 1445). The arrangement: species or system Plasmodium falciparum 3D7, 3D7.

Assay [3] deals with T2, Rac GTPase-activating protein 1 (Homo sapiens, UniProt Q9H0H5).
T2 sequence (Q9H0H5 whole entry): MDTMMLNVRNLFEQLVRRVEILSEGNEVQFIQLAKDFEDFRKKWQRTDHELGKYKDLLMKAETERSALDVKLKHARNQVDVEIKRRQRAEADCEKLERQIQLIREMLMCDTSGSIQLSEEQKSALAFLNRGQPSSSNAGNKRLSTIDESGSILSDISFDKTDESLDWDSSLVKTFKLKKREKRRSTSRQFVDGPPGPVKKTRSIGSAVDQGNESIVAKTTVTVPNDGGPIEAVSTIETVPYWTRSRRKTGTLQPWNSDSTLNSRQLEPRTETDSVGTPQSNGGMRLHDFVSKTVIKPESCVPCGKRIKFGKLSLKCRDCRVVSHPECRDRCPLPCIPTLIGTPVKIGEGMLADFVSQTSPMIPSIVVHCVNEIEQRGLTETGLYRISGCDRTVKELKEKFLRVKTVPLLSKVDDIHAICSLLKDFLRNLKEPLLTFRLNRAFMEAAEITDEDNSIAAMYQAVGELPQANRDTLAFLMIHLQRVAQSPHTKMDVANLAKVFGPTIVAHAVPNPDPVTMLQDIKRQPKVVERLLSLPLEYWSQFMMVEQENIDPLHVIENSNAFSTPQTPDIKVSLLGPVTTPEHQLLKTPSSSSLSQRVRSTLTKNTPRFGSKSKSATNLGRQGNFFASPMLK
Put plainly: blockers of MgcRacGAP-driven Rac1 GTP hydrolysis – biochemical, ADP Hunter fluorescence, primary and confirmatory, confirmation (AID 624330). In kind it is functional.

In assay [4] the target is Prothrombin (Bos taurus, UniProt P00735). Put plainly: thrombin protease inhibitors – biochemical, fluorescence polarization, uHTS hits, dose response (AID 602369). The assay is classed as functional.
A short description of assay [5]: rescue of ΔF508 CFTR function, airway epithelium – human bronchial epithelial cells, plate reader, cherry-pick, two tests, dose response (AID 743267). The assay is classed as functional, cell-based.
The target in assay [6] is 26S proteasome non-ATPase regulatory subunit 14 (Homo sapiens, UniProt O00487). Put plainly: inhibition of proteasome subunit RPN11 – biochemical, fluorescence polarization, uHTS hits, confirmation (AID 602368). The assay is classed as functional. Background: Polarisation of emitted light reports the rotation of a fluorescent probe.
Assay [7] concerns the target Death-associated protein kinase 3 (Homo sapiens, UniProt O43293). In kind it is functional.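 Further: measured as one member of a kinome-wide profiling panel.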
The target in assay [8] is Cyclin-dependent kinase 8 (Homo sapiens, UniProt P49336). Nature of the assay: Navigating the Kinome. Panel member name: CDK8. The assay is classed as functional.
Assay [9] has as its target Proto-oncogene tyrosine-protein kinase receptor Ret (Homo sapiens, UniProt P07949). The assay is classed as functional.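 Further: measured within a kinome-wide profiling panel, RET as the panel member.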
Assay [10] has as its target cAMP-dependent protein kinase catalytic subunit PRKX (Homo sapiens, UniProt P51817). The assay is classed as functional.
Assay [11] concerns the target Leukocyte tyrosine kinase receptor (Homo sapiens, UniProt P29376). Put plainly: Navigating the Kinome. Panel member name: LTK. In kind it is functional.
In assay [12] the target is 5'-AMP-activated protein kinase catalytic subunit alpha-1 (Homo sapiens, UniProt Q13131). In kind it is functional.
For assay [13], the target named is Tyrosine-protein kinase receptor TYRO3 (Homo sapiens, UniProt Q06418). In kind it is functional.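 Further: TYRO3 value obtained as one member of a kinome-wide profiling panel.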
For assay [14], the target named is Casein kinase I isoform alpha (Homo sapiens, UniProt P48729). The assay is classed as functional.
Sequence of Casein kinase I isoform alpha (P48729 whole entry, canonical isoform): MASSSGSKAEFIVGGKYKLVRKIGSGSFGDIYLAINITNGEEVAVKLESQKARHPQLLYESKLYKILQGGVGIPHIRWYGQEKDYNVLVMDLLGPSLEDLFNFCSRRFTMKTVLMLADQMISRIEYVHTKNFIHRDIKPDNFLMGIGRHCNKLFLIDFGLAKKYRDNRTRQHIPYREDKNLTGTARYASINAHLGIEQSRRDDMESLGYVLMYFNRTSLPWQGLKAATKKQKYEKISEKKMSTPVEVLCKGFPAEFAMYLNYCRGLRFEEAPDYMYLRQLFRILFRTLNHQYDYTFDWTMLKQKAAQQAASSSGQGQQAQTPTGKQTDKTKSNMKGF
The target of assay [15] is Cyclin-dependent kinase 5 (Homo sapiens, UniProt Q00535). The assay is classed as functional.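 Further: CDK5 measured as one member of a kinase profiling panel.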
Sequence of Cyclin-dependent kinase 5 (Q00535 whole entry): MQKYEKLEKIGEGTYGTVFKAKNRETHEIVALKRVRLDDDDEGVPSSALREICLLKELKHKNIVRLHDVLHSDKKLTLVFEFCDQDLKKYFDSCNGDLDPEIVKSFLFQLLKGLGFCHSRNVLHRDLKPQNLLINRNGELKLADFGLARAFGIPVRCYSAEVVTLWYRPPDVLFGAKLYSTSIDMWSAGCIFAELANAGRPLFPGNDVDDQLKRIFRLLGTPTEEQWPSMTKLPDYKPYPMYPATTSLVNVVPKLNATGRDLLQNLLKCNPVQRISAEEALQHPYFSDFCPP
Assay [16] concerns the target Serine/threonine-protein kinase pim-1 (Homo sapiens, UniProt P11309). In kind it is functional.
The target in assay [17] is Focal adhesion kinase 1 (Homo sapiens, UniProt Q05397). The assay is classed as functional.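 Further: measured as one member of a kinome panel.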
The target in assay [18] is Leucine-rich repeat serine/threonine-protein kinase 2 (Homo sapiens, UniProt Q5S007). In kind it is functional.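 Further: value from a broad kinome-wide panel profiling study in which LRRK2 was one of the kinases tested.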
In assay [19] the target is Serine/threonine-protein kinase Chk1 (Homo sapiens, UniProt O14757). The assay is classed as functional.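 Further: measured as one member of a kinome-wide kinase profiling panel.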
Assay [20] concerns the target Dual specificity protein kinase CLK4 (Homo sapiens, UniProt Q9HAZ1). In kind it is functional.
Assay [21] concerns the target Dual specificity tyrosine-phosphorylation-regulated kinase 1B (Homo sapiens, UniProt Q9Y463). Put plainly: Navigating the Kinome. Panel member name: DYRK1B. In kind it is functional.
The target of assay [22] is Dual specificity tyrosine-phosphorylation-regulated kinase 1A (Homo sapiens, UniProt Q13627). In kind it is functional.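 Further: measured against DYRK1A as one member of a broad kinome profiling panel.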
For assay [23], the target named is LIM domain kinase 1 (Homo sapiens, UniProt P53667). Put plainly: Navigating the Kinome. Panel member name: LIMK1. In kind it is functional.
Sequence of LIM domain kinase 1 (P53667 whole entry, the tested form may be a part): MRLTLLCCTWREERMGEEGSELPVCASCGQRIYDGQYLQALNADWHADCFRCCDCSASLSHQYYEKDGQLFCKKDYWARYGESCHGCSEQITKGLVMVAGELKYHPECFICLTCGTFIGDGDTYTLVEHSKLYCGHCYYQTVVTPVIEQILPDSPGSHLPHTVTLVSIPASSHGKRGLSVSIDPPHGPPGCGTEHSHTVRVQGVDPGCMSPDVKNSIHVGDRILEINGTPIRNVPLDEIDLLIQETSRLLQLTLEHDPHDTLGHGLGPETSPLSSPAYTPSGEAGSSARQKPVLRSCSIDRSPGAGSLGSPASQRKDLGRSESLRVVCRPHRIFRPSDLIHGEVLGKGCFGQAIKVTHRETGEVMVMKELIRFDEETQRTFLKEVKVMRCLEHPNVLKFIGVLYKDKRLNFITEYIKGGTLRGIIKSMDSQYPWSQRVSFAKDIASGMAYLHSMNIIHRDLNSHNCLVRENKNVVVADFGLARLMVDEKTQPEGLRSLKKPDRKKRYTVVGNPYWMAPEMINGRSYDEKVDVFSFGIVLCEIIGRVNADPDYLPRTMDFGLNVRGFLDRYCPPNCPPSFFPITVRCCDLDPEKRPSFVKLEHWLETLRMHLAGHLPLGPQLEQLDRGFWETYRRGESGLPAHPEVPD
For assay [24], the target named is T3, Activin receptor type-1 (Homo sapiens, UniProt Q04771).
T3 sequence (Q04771 whole entry): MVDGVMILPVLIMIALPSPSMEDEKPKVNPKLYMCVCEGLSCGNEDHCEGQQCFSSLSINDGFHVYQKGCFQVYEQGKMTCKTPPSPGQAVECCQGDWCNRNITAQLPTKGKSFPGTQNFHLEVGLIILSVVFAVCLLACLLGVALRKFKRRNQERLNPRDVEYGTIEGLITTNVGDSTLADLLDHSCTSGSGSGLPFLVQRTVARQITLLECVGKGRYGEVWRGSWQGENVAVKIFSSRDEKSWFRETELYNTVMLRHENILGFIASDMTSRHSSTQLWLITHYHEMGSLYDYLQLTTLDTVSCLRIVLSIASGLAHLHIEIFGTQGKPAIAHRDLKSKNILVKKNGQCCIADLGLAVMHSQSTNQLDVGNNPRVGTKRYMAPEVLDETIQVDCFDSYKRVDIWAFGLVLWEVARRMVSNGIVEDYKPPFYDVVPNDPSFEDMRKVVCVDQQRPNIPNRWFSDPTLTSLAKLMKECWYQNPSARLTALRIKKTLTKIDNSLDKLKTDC
Nature of the assay: Navigating the Kinome. Panel member name: ACVR1. The assay is classed as functional.

In assay [25] the target is Mitogen-activated protein kinase 13 (Homo sapiens, UniProt O15264). The assay is classed as functional.
Sequence of Mitogen-activated protein kinase 13 (O15264 whole entry): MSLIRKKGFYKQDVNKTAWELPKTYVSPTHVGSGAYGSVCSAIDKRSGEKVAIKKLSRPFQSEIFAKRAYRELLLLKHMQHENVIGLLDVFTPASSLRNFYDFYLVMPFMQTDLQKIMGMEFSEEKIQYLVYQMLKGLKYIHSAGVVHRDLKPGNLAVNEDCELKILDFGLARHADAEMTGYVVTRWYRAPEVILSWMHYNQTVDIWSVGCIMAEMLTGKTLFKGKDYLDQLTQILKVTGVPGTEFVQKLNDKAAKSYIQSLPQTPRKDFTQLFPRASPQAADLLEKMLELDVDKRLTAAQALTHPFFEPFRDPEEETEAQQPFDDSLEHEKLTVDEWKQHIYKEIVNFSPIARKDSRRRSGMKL
Assay [26] deals with Mitogen-activated protein kinase 8 (Homo sapiens, UniProt P45983). In kind it is functional.
Assay [27] deals with Platelet-derived growth factor receptor alpha (Homo sapiens, UniProt P16234). Put plainly: Navigating the Kinome. Panel member name: PDGFRA. The assay is classed as functional.
Assay [28] addresses Vascular endothelial growth factor receptor 2 (Homo sapiens, UniProt P35968). The assay is classed as functional.
The target in assay [29] is Mitogen-activated protein kinase kinase kinase kinase 4 (Homo sapiens, UniProt O95819). In kind it is functional.
Sequence of Mitogen-activated protein kinase kinase kinase kinase 4 (O95819 whole entry): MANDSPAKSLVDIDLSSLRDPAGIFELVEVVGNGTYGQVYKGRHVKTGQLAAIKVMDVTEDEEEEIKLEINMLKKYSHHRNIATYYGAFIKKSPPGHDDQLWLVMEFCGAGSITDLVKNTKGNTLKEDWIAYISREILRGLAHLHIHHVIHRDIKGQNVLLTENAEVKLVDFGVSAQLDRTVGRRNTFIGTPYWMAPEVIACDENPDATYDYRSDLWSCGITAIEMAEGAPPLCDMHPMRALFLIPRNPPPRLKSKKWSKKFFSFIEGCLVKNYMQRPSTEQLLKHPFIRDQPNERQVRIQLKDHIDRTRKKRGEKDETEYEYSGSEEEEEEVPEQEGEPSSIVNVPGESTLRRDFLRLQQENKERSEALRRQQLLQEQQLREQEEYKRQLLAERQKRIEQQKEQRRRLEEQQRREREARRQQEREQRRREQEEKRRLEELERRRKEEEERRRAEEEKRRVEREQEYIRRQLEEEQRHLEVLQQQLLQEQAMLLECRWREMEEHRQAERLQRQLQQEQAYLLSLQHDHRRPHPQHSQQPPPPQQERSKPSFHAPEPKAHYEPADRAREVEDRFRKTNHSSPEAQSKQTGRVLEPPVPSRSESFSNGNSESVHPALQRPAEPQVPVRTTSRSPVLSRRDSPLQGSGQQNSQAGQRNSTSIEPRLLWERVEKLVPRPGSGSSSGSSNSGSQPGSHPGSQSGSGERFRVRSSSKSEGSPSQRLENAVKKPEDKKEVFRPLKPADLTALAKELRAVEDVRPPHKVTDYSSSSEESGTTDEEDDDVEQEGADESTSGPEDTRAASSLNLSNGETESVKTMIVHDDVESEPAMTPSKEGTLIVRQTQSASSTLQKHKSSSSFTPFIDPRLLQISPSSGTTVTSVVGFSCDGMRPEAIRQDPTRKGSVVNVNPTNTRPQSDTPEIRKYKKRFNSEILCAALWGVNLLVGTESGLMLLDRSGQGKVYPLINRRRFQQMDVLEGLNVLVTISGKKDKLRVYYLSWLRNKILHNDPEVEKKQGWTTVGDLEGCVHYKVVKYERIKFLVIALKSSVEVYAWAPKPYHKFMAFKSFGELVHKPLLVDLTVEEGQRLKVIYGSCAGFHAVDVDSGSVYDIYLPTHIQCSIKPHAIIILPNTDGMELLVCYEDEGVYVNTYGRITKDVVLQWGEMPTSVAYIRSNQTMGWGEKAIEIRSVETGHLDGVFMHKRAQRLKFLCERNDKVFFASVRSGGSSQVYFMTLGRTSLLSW
Assay [30] concerns the target Fibroblast growth factor receptor 1 (Homo sapiens, UniProt P11362). In kind it is functional.
Assay [31] has as its target Macrophage colony-stimulating factor 1 receptor (Homo sapiens, UniProt P07333). In kind it is functional.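 Further: value comes from the Navigating the Kinome screening panel, CSF1R member.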
Assay [32] concerns the target Activated CDC42 kinase 1 (Homo sapiens, UniProt Q07912). Put plainly: Navigating the Kinome. Panel member name: ACK1. In kind it is functional.
The target of assay [33] is Aurora kinase B (Homo sapiens, UniProt Q96GD4). In kind it is functional.

These results are taken from ChEMBL document CHEMBL1201862, “PubChem BioAssay data set” (2004).

Active and inactive are the calls of the source.

The IC50 is the concentration that inhibits the measured activity by half. In general, AC50 refers to the concentration at which the activity in the assay is half-maximal. As usually defined, the Ki is the dissociation constant of the complex between target and ligand, obtained from inhibition or displacement.

Sequence of Leukocyte tyrosine kinase receptor (P29376 whole entry): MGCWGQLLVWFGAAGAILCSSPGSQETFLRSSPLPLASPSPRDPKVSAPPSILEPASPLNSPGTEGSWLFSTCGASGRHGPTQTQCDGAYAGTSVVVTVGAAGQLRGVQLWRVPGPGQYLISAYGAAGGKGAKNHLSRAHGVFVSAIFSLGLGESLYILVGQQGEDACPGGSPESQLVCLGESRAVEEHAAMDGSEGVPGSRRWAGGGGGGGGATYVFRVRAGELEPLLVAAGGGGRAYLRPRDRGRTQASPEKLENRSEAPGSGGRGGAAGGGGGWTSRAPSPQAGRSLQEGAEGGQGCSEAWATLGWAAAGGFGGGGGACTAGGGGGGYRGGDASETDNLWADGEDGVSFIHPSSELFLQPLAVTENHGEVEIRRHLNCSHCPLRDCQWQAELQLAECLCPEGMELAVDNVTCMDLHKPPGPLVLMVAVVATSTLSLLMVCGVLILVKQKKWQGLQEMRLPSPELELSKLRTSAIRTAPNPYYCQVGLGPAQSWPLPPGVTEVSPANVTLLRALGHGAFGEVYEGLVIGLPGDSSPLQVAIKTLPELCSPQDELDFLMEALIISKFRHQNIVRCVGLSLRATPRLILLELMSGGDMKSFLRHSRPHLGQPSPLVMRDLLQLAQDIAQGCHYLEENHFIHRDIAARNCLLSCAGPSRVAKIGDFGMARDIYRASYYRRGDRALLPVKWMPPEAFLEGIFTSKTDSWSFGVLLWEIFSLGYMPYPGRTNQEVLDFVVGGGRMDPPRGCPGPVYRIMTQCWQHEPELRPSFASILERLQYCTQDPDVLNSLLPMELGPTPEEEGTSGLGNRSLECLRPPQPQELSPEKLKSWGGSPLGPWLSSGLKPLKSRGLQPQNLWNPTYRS
Sequence of Dual specificity tyrosine-phosphorylation-regulated kinase 1B (Q9Y463 whole entry): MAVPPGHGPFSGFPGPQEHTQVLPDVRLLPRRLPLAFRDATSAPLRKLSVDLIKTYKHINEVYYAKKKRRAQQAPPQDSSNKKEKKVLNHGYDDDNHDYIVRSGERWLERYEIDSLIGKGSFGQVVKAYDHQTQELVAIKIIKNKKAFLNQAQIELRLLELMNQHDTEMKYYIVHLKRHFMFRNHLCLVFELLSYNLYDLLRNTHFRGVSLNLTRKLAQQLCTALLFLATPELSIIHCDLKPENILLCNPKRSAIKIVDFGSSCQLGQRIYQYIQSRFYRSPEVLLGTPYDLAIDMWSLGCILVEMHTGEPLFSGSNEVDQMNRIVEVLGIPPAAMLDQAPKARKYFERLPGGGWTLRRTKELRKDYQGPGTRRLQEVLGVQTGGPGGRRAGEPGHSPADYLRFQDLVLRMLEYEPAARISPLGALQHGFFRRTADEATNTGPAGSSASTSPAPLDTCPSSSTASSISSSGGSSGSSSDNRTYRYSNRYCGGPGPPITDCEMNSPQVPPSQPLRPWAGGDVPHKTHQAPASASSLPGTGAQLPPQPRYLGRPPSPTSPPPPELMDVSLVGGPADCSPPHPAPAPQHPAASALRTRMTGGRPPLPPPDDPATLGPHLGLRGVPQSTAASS
Sequence of Dual specificity protein kinase CLK4 (Q9HAZ1 whole entry): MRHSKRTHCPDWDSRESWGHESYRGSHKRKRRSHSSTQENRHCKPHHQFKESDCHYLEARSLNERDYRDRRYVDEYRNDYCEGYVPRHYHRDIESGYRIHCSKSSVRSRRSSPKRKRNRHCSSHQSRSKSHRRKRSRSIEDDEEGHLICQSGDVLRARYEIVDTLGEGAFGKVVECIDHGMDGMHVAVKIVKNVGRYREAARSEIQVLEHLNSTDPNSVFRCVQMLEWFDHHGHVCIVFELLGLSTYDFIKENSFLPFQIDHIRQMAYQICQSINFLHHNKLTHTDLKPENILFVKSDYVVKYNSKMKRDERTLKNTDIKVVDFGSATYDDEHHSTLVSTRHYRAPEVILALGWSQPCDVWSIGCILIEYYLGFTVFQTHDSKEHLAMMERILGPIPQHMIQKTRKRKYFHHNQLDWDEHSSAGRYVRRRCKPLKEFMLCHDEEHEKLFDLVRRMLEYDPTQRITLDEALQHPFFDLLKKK

Consider `CCOc1cc(/C=C2\C(=N)N3N=C(S(=O)(=O)CC)SC3=NC2=O)ccc1O`, for which the IC50 is > 100 µM (inactive) in assay [1]; 55.7 µM (active) in assay [2]; 79.6 µM (active) in [3]; 34.8 µM (active) in [4]; 28.6 µM (active) in assay [6]. The AC50 in assay [5] is 24.9 µM (active).

Turning to `O=C1NS(=O)(=O)c2ccc(Cl)cc21`, the Ki was 31.6 µM (active) in assay [7]; 63.1 µM (active) in assay [8]; 100 µM (active) in assay [9]; 63.1 µM (active) in assay [10]; 31.6 µM (active) in assay [11]; 50.1 µM (active) in [12]. Moreover, the Ki in assay [13] is 20 µM (active); in [14], 100 µM (active); in assay [15], 50.1 µM (active); in [16], 79.4 µM (active); in assay [17], 79.4 µM (active); in [18] it was 50.1 µM (active). Further, the Ki in assay [19] was 79.4 µM (active); in assay [20] it was 63.1 µM (active); in assay [21], 20 µM (active); in assay [22], 20 µM (active); in assay [23] it was 25.1 µM (active); in [24], 79.4 µM (active).

Turning to `O=S(=O)(NCCNCC=Cc1ccc(Br)cc1)c1cccc2cnccc12`, in assay [25], the Ki is > 7.94 µM (inactive).

Take `Nc1n[nH]c2c(-c3ccccc3)cccc12`: the Ki was 15.8 µM (active) in assay [26]; 50.1 µM (active) in assay [27]; 50.1 µM (active) in assay [28]; 25.1 µM (active) in assay [29]; 79.4 µM (active) in assay [30]; 50.1 µM (active) in assay [11]. Also, the Ki was 63.1 µM (active) in assay [31]; 39.8 µM (active) in [14]; 50.1 µM (active) in assay [15]; 79.4 µM (active) in assay [20]; 50.1 µM (active) in [21]; 79.4 µM (active) in assay [32]. Besides, the Ki in assay [23] is 63.1 µM (active); in assay [33], 79.4 µM (active); in assay [24] it was 79.4 µM (active).
